{"source": "patent US9226917B2", "about": "“Photodynamic therapy for conditions of the eye” (Valeant Pharmaceuticals International, Inc., priority 2008, dated 2016)", "key": {"[1]": {"system": "AMD and other retinal diseases", "conditions": "intravitreal injection, published case series; cited from earlier work"}, "[2]": {"experiment": "RADICAL study: safety / adverse events", "format": "in vivo, human", "conditions": "12 months", "method": "The study is a 24-month randomized, controlled trial designed to evaluate 3 combination treatment regimens: (1) very low-fluence vPDT (15 J/cm^2) combined with ranibizumab (0.5 mg) and dexamethasone (0.5 mg); (2) half-fluence vPDT (25 J/cm^2) combined with ranibizumab and dexamethasone; and (3) half-fluence vPDT combined with ranibizumab. These regimens are compared with ranibizumab monotherapy in patients with subfoveal choroidal neovascularization (CNV) due to AMD. Inclusion criteria includes ≧50 years old; naïve to AMD treatment; best-corrected VA (BCVA) letter score of 73-24; subfoveal CNV due to AMD; and lesion size <9 DA. Patients (N=160) are randomly assigned to 1 of the 4 treatment arms at baseline, receive 1 initial treatment, and are to be evaluated for retreatment every month based on novel criteria using OCT and FA. […]\nBest-corrected visual acuity is assessed by the ETDRS method at screening, on the day of initial treatment (before treatment), at monthly visits through 6 months, and at the 12-, 18-, and 24-month visits. FA is assessed at screening, at the 3- and 12-month visits, and as required according to re-treatment criteria. OCT is assessed to determine retreatment criteria at every visit. Safety, including intraocular pressure, is also evaluated at every visit. […]"}, "CNV due to AMD": {"system": "CNV due to AMD", "conditions": "dosing every 3 months compared to continued monthly dosing, on average, over the following 9 months; cited from earlier work"}, "[3]": {"system": "subfoveal choroidal neovascularization (CNV) due to AMD", "experiment": "RADICAL study: 24-month randomized, controlled trial of vPDT combination regimens versus ranibizumab monotherapy (visual acuity, retreatments, retinal thickness)", "format": "in vivo, human", "method": "The study is a 24-month randomized, controlled trial designed to evaluate 3 combination treatment regimens: (1) very low-fluence vPDT (15 J/cm^2) combined with ranibizumab (0.5 mg) and dexamethasone (0.5 mg); (2) half-fluence vPDT (25 J/cm^2) combined with ranibizumab and dexamethasone; and (3) half-fluence vPDT combined with ranibizumab. These regimens are compared with ranibizumab monotherapy in patients with subfoveal choroidal neovascularization (CNV) due to AMD. Inclusion criteria includes ≧50 years old; naïve to AMD treatment; best-corrected VA (BCVA) letter score of 73-24; subfoveal CNV due to AMD; and lesion size <9 DA. Patients (N=160) are randomly assigned to 1 of the 4 treatment arms at baseline, receive 1 initial treatment, and are to be evaluated for retreatment every month based on novel criteria using OCT and FA. Patients in the ranibizumab monotherapy group receive mandatory dosing at months 1 and 2, and as needed thereafter based on the same retreatment criteria. Patients in the combination therapy groups receive assigned treatment as needed (not more frequently than every 2 months), based on retreatment criteria; if treatment is required in an intervening month, then a ranibizumab injection is given. Study outcomes include efficacy, safety, and number of retreatments.\nAfter their initial randomized study treatment, patients in the combination therapy groups return to the clinic monthly for re-treatment evaluation. Re-treatment criteria are based on optical coherence tomography (OCT) and fluorescein angiography (FA). If OCT central retinal thickness (CRT) is ≧250 μm or is increased >50 μm compared with the lowest previous CRT measurement, then the patient is re-treated.\nCombination re-treatment is not administered more frequently than every 2 months. If re-treatment is found to be needed in an intervening month, the patient receives a ranibizumab injection only. After their initial randomized study treatment, patients in the ranibizumab monotherapy group receive mandatory re-treatment at months 1 and 2, and then re-treatment as needed thereafter based on the criteria described above. In all treatment arms, monthly assessments and potential re-treatments continue through 12 months of the study. Between 12 and 24 months, patients attend the clinic at least once every 3 months, or more frequently at the investigator's discretion.\nBest-corrected visual acuity is assessed by the ETDRS method at screening, on the day of initial treatment (before treatment), at monthly visits through 6 months, and at the 12-, 18-, and 24-month visits. FA is assessed at screening, at the 3- and 12-month visits, and as required according to re-treatment criteria. OCT is assessed to determine retreatment criteria at every visit. Safety, including intraocular pressure, is also evaluated at every visit.\nStudy outcomes include visual acuity, CRT, lesion size, number of re-treatments, and safety. The primary efficacy variables are mean number of re-treatments and mean change from baseline in visual acuity score.\nRandomization occurs on the day of the first treatment to one of the following groups: • Lucentis monotherapy. • Half-fluence Visudyne-Lucentis (V-L) double therapy. • Half-fluence (25 J/cm^2) Visudyne-Lucentis-Dexamethasone (V-L-D) triple therapy. • Very low-fluence (15 J/cm^2) Visudyne-Lucentis-Dexamethasone (V-L-D) triple therapy.\nTreatments occur within 7 days of baseline FA. […]"}}, "data": [{"substance": "bevacizumab [Avastin]", "values": [{"measurement": "mean VA in treated patients", "setting": "[1]", "value": "increase of mean VA"}]}, {"substance": "ranibizumab [Lucentis monotherapy]", "values": [{"measurement": "Ocular adverse events considered associated with treatment (share of patients)", "setting": "[2]", "value": "approximately one-fourth"}, {"measurement": "loss of visual acuity benefit", "setting": "CNV due to AMD", "value": "~5", "unit": "letter"}, {"measurement": "percentage of patients whose vision improved by 3 lines or more", "setting": "[3]; 12 months", "value": 24, "unit": "%"}, {"measurement": "Mean retreatment rate", "setting": "[3]; ITT, 12 months, Day 0 treatment excluded", "value": 5.4}, {"measurement": "Mean VA improvement from baseline (letters)", "setting": "[3]; ITT, month 12", "value": 6.5, "unit": "letters"}, {"measurement": "Mean VA improvement from baseline (letters)", "setting": "[3]; Per-protocol, 12 months", "value": 6.8, "unit": "letters"}, {"measurement": "Mean retreatment rate", "setting": "[3]; Per-protocol, 12 months", "value": 5.9}]}]}
